Test results reported in US20240216343A1, “ENDOTHELIAL IK AND SK CHANNEL ACTIVATION TO TREAT PULMONARY HYPERTENSION” (UNIVERSITY OF VIRGINIA PATENT FOUNDATION, priority 2023, published 2024).
“Also recorded” adds a separate entry of the source. Each block holds one compound with its values, some of them ahead of it.

Tests used:
Su+CH mouse model of PH [1] = assay: RVSP measurement after acute treatment; assay type: in vivo
Protocol: (§1) PH was induced by exposing C57BL6/J mice to chronic hypoxia (CH; 10% 02: 4 weeks) with concurrent treatment with the receptor tyrosine kinase inhibitor, SU5416 (20 mg·kg^−1), administered subcutaneously (s.c.) once a week (20). SU5416 was dissolved in DMSO/PEG 400 (50/50). Mice were exposed to CH conditions in a vinyl hypoxic chamber (Coy Laboratory Products; Inc. Grass Lake; MI; USA) connected to an auto purge airlock inlet. Oxygen concentration in the glove box was regulated by an oxygen controller and oxygen sensor (Coy Laboratory Products, Inc.). Control mice were maintained in room air for 4 weeks.
(§2) Mice were anesthetized with pentobarbital (50 mg·kg^−1; i.p.), and bupivacaine HCl (100 μL of 0.25% solution; s.c.) was used to numb the dissection site on the mouse. RVSP was measured as an indirect indicator of PAP (18, 21). Mice were cannulated with a Mikro-Tip pressure catheter (SPR-671; Millar Instruments; Houston; TX; USA), connected to a bridge amp (FE221) and a PowerLab 4/35 4-channel recorder (ADInstruments; Colorado Springs; CO; USA), through the external jugular vein into the right ventricle. Right ventricular pressure was acquired and analyzed using LabChart8 software (ADInstruments). In the subgroup of mice treated with SKA-31 (30 mg·kg^−1; i.p.), RVSP was measured before SKA-31 injection and 20 minutes after. A stable 3-minute recording was acquired for all animals, and a 1-minute continuous segment was used for data analysis. Where necessary, traces were digitally filtered using a low-pass filter at a cut-off frequency of 50 Hz. At the end of experiments, mice were euthanized, and their hearts were isolated for right ventricular hypertrophy analysis. Right ventricular hypertrophy was determined by calculating the Fulton index, a ratio of the right ventricular (RV) heart weight over the left ventricular (LV) plus septum (S) weight (RV/LV+S).

Su+CH mouse model of PH [2] = assay: Chronic treatment: RVSP, Fulton index and PA remodeling (histology, immunostaining); assay type: in vivo
Protocol: as §1
For PA remodeling studies, mice in the experimental group were treated with the IK/SK channel activator, SKA-31 (30 mg·kg^−1; i.p.), twice a day for the final 7 days of Su+CH exposure. Control mice were exposed to Su+CH for 4 weeks but were injected with vehicle instead of SKA-31. At the end of week 4 of Su+CH exposure, mice were euthanized with pentobarbital (90 mg·kg^−1; i.p.; UVA Hospital Pharmacy) and left lungs were perfused with the NO donor and fast-acting vasodilator, SNP (50 μmol/L; Sigma Aldrich), followed by incubation overnight at room temperature with 4% paraformaldehyde (PFA) for histology and immunostaining.
as §2
Isolated left lungs were perfused with PBS containing 50 μmol/L SNP and fixed in 4% PFA overnight at room temperature before paraffin embedding and sectioning. After sectioning paraffinized lungs, sections (5-μm thick) were deparaffinized and incubated in endogenous peroxidase (30%) for 30 minutes at room temperature, followed by a 5-minute wash with double-distilled H2O. For antigen retrieval, sections were microwaved in a citrate-based antigen unmasking solution (Vector Laboratories; Newark; CA; USA) for 20 minutes with brief pauses to avoid boiling. After allowing slides to cool in the antigen unmasking solution for 1 hour at room temperature, sections were permeabilized by incubating with 0.2% Triton-X for 30 minutes on a shaking rocker at room temperature, then blocked by incubating with 0.2% Triton-X, 5% normal donkey serum (ab7475; Abcam; Cambridge; MA; USA) and fish skin gelatin (FSG; Sigma Aldrich) for 1 hour. […]

[3] = Cardiac functional magnetic resonance imaging; assay type: in vivo, mouse; conditions: acute SKA-31 administration
[4] = cited from earlier work
[5] = reference (33); cited from earlier work
IK/SK channels = conditions: reference (37); cited from earlier work
fourth-order PAs = assay: Pressure myography of mouse fourth-order PAs
Source text: Mouse fourth-order PAs (˜50 μm) were cannulated on glass micropipettes in a pressure myography chamber (The Instrumentation and Model Facility; University of Vermont; Burlington; VT; USA) and pressurized to a physiological pressure of 15 mm Hg (24). Briefly, freshly dissected lungs were placed in ice cold HEPES buffer in a dissection plate. The left lung was stretched and pinned down, with ventral side facing up. First, pulmonary veins, and then the airway were cut open to gain access to the pulmonary arteries underneath. Once PAs were visible, they were gently separated from surrounding tissue (25). Arteries were superfused with bicarbonate-physiological salt solution (PSS; 119 mmol/L NaCl; 4.7 mmol/L KCl; 1.2 mmol/L KH2PO4; 1.2 mmol/L MgCl2 hexahydrate; 2.5 mmol/L CaCl2) dihydrate; 7 mmol/L dextrose; and 24 mmol/L NaHCO3) at 37° ° C. and bubbled with 20% O2/5% CO2 to maintain the pH at 7.4. Approximately 20% PAs from normal mice develop myogenic tone, whereas ˜65% PA from Su+CH mice show myogenic tone at 15 mm Hg. Due to the relatively small percentage of PAs from normal mice showing myogenic tone, we pre-constricted all PAs with 30 nmol/L U46619 (a thromboxane A2 receptor agonist). […] U46619 was added to the chamber immediately, before the arteries could develop myogenic tone. Before measuring vascular reactivity, arteries were treated with NS309 (1 μmol/L), a direct activator of endothelial IK/SK channels, to assess endothelial health. […] Changes in arterial diameter were recorded at a 60-ms frame rate using a charge-coupled device camera and edge-detection software (IonOptix LLC; Westwood; MA; USA) (11, 26). At the end of each experiment, Ca^2+-free PSS (119 mmol/L NaCl; 4.7 mmol/L KCl; 1.2 mmol/L KH2PO4; 1.2 mmol/L MgCl2 hexahydrate; 7 mmol/L dextrose; 24 mmol/L NaHCO3; and 5 mmol/L EGTA) was applied to assess the maximum passive diameter. Percent constriction was calculated by:
[formula] • where Diameterbefore is the diameter of the artery before treatment and Diameterafter is the diameter after treatment. Percent dilation was calculated by:
[formula] • where Diameterbasal is the stable diameter before drug treatment, Diameterdilated is the diameter after drug treatment, and Diameterca-free is the maximum passive diameter.

large PAs = conditions: rats exposed to chronic hypoxia; reference (49); cited from earlier work
[6] = tested on: IK/SK channels in SMCs from PAs; assay: Whole-cell patch-clamp in freshly isolated SMCs from small PAs; assay type: cell-based, mouse; conditions: TRAM-34 1 μmol/L and Apa 300 nmol/L added together after NS309 1 μmol/L; SMCs from control or Su+CH mice
Protocol: For SMC isolation (27), arterial segments were transferred to a 12×75 mm borosilicate glass culture tube containing 1 mL dissociation solution (145 mmol/L NaCl; 4 mmol/L KCl; 1 mmol/L MgCl2; 10 mmol/L HEPES; 0.05 mmol/L CaCl2), 10 mmol/L glucose; pH 7.3) and 0.5 mg/mL bovine serum albumin (BSA) and incubated for 10 minutes at room temperature (˜24° C.). The solution was then replaced with 1 mL dissociation solution containing 1 mg/mL papain (Sigma Aldrich) and 0.5 mg/mL dithiothreitol (Sigma Aldrich), and incubation was continued at 37° C. for 20 minutes. […]
Whole-cell currents were measured at room temperature using conventional whole-cell patch-clamp electrophysiology. […] The pipette solution for conventional patch clamp consisted of 10 mmol/L HEPES, 123.2 mmol/L KCl, 10 mmol/L NaCl, 5.5 mmol/L MgCl2, 0.2 mmol/L CaCl2) and 5 mmol/L HEDTA (adjusted to pH 7.2 with 16.8 mm KOH) and contained 3 μm free-Ca^2+ and 1 mmol/L free-Mg^2+, as calculated using the Max-Chelator program (Chris Patton; Stanford University; Stanford; CA; USA). […] Data were acquired using a Multiclamp 700B amplifier connected to a Digidata 1550B system and analyzed using Clampfit 11.1 software (Molecular Devices, San Jose, CA, USA).
NS309-induced ionic currents were measured in freshly isolated SMCs (FIG. 4A) from PAs in whole-cell patch-clamp experiments (FIGS. 4B and 4C).

[7] = 30 mg·kg−1 i.p. twice a day for 7 days

Cardiac output [3]: does not alter | Ejection fraction [3]: does not alter | Stroke volume [3]: does not alter
Compound: Nc1nc2c(ccc3ccccc32)s1 [SKA-31, naphtho[1,2-d]thiazol-2-ylamine]
RVSP in Su+CH mice, acute treatment (Su+CH mouse model of PH [1]; 30 mg·kg−1 i.p., RVSP before and 20 minutes after injection, Su+CH mice): significantly reduced; also recorded: lowered | RVSP in normal (N) mice, acute treatment (Su+CH mouse model of PH [1]; 30 mg·kg−1 i.p., normoxic/control mice): not in N mice; also recorded: not observed in normal mice; also recorded: not in control mice | PAP in Su+CH mice, acute treatment (Su+CH mouse model of PH [1]; acute SKA-31, Su+CH mice but not control mice): lowered | Collagen content of PAs (Masson's Trichrome) in Su+CH mice (Su+CH mouse model of PH [2]; [7]): reduced | Fulton index (right ventricular hypertrophy) in Su+CH mice, chronic treatment (Su+CH mouse model of PH [2]; [7]): significantly lowered; also recorded: reduced | α-actin immunostaining of PAs in Su+CH mice (Su+CH mouse model of PH [2]; [7]): reduced | RVSP in Su+CH mice, chronic treatment (Su+CH mouse model of PH [2]; 30 mg·kg−1 i.p. twice a day for 7 days, fourth week of Su+CH): significantly lowered | Pulmonary artery lesions in Su+CH mice, chronic treatment (Su+CH mouse model of PH [2]; chronic SKA-31): reduced | Heart rate [3]: does not alter | Metabolism ([4]; reason for in vivo use instead of NS309, reference (33)): favorable metabolism | Half-life in vivo ([4]; references (37, 38)): longer half-life | Resting systemic blood pressure [5]: lowered | Potency as activator of IK/SK channels relative to NS309 (IK/SK channels): less potent

Compound: Nc1ncnc2c1ncn2[C@@H]1O[C@H](COP(=O)(O)OP(=O)(O)OP(=O)(O)O)[C@@H](O)[C@H]1O [ATP, adenosine triphosphate]
Dilation of PAs from CH+Su mice (fourth-order PAs; CH+Su mice): unable to dilate

Compound: CCn1c(=O)n(CC)c2c(Cl)c(Cl)ccc21 [NS4591]
Dilatory response of large PAs after chronic hypoxia (large PAs): decreases

Compound: Clc1ccccc1C(c1ccccc1)(c1ccccc1)n1cccn1 [TRAM-34]
Effect on NS309-induced outward currents in SMCs [6]: did not reduce | Constriction of small PAs (fourth-order PAs; TRAM-34 1 μmol/L and Apa 300 nmol/L applied together, not different between N and Su+CH mice): ~10%

Compound: NC(=NCCC[C@H](N)C(=O)O)N[N+](=O)[O-] [L-NNA]
Constriction of PAs from Su+CH mice (fourth-order PAs; L-NNA 100 μmol/L, Su+CH mice): unable constrict | Constriction of PAs from N mice (fourth-order PAs; L-NNA 100 μmol/L, normoxic mice): ~20%

Compound: CCCCC[C@H](O)/C=C/[C@@H]1[C@@H](C/C=C\CCCC(=O)O)[C@H]2CO[C@@H]1C2 [U46619]
Arteries showing a constriction (fourth-order PAs; U46619 30 nmol/L, both normal and PH groups): More than 95%
